Assay results as given in PubChem BioAssay (NCI).
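Briefly, cells in 96-well plates were exposed to five compound concentrations for 48 h, and endpoints were estimated by linear interpolation. At the TGI there is no net growth.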

Experiments:
Assay in all cases: NCI tumour cell line growth inhibition, 48 h
CAKI-1 renal = system: CAKI-1 renal
CCRF-CEM leukemia = system: CCRF-CEM leukemia
HCT-15 colon = system: HCT-15 colon
HL-60(TB) leukemia = system: HL-60(TB) leukemia
HT29 colon = system: HT29 colon
IGROV1 ovarian = system: IGROV1 ovarian
K-562 leukemia = system: K-562 leukemia
NCI-H23 lung = system: NCI-H23 lung
SF-295 CNS = system: SF-295 CNS
UACC-257 melanoma = system: UACC-257 melanoma

Row | Compound | TGI (CAKI-1 renal) | TGI (CCRF-CEM leukemia) | TGI (HCT-15 colon) | TGI (HL-60(TB) leukemia) | TGI (HT29 colon) | TGI (IGROV1 ovarian) | TGI (K-562 leukemia) | TGI (NCI-H23 lung) | TGI (SF-295 CNS) | TGI (UACC-257 melanoma)
1 | Clc1ccc(-c2cc(-c3cc4cc(Br)ccc4nc3Cl)on2)cc1 | > 50 µM | 36.2 µM | > 50 µM | 4.89 µM | > 50 µM | > 50 µM | > 50 µM | 46.5 µM | > 50 µM | 46 µM
2 | CC1(C)CO[P@@](=S)(c2ccccn2)O[C@@H]1c1ccccc1 | > 100 µM | > 100 µM | > 100 µM | > 100 µM | > 100 µM | > 100 µM | > 100 µM | > 100 µM | > 100 µM | > 100 µM
3 | COc1cc(/C=C2\C[C@H]3[C@@H]4CCC5=CC(=O)CC[C@]5(C)[C@H]4CC[C@]3(C)C2=O)cc(OC)c1OC | > 65.2 µM | > 100 µM | > 100 µM | 7.55 µM | > 100 µM | > 100 µM | > 100 µM | > 100 µM | > 100 µM | > 84.2 µM
4 | C/C(=N\NC(=O)c1ccc(Cl)cc1)c1nc2ncccc2[nH]1 | > 100 µM | > 100 µM | > 100 µM | 70.2 µM | > 100 µM | > 100 µM | > 100 µM | > 100 µM | > 100 µM | 79.9 µM
5 | O=[N+]([O-])c1ccc(C2ON=C(c3ccccc3)N2C23CC4CC(CC(C4)C2)C3)cc1 (stereo not given) | > 10 µM | > 10 µM | > 10 µM | > 10 µM | > 10 µM | > 10 µM | > 10 µM | > 10 µM | > 10 µM | > 10 µM
6 | O=C(/C=C1\Sc2ccccc2N=C1CC(=O)c1ccccc1)c1ccccc1 | 34.1 µM | 50 µM | > 100 µM | 22.3 µM | 23.6 µM | 37.4 µM | 20 µM | > 100 µM | 24.7 µM | > 100 µM
7 | CCCCCCCCC/C=C1/CC(CO)(COC(=O)CC(C(C)C)C(C)C)OC1=O (stereo not given) | 17.4 µM | 25 µM | 29 µM | 15.4 µM | 29.9 µM | 29.1 µM | 28.6 µM | 26.9 µM | 16.2 µM | 26 µM
8 | COc1cc(C(=O)Oc2c(C(C)=O)sc3c2c(=O)n(-c2ccccc2)c(=S)n3-c2ccccc2)cc(OC)c1OC | 76.5 µM | 45.8 µM | 44.1 µM | 49.7 µM | 32.8 µM | 43.5 µM | > 100 µM | 39.9 µM | 40.6 µM | 68.3 µM
9 | COc1ccc2c(O)c(S(=O)(=O)c3ccc(C)cc3)c(=O)oc2c1OC | > 100 µM | > 100 µM | > 100 µM | > 100 µM | > 100 µM | > 100 µM | > 100 µM | > 100 µM | > 100 µM | > 100 µM
